# In patent US20260285850A1, “SUBSTITUTED OXAZOLIDINONES AND IMIDAZOLINONES AS HERBICIDES” (FMC CORPORATION, priority 2023, published 2026):
# Columns and labels:
# Type in all cases: in vivo
# [1] = tested on: barnyardgrass (Echinochloa crus-galli); experiment: Test A preemergence soil spray, visual injury rating 0-100; details: 10 days, 0 = no effect, 100 = complete control
# In short: (§1)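 Loam-sand pots got test material in surfactant-containing solvent, either as a directed soil spray before emergence or on plants at the one- to two-leaf stage. Visual injury (0-100) was read after ten greenhouse days.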
# [2] = tested on: blackgrass (Alopecurus myosuroides); experiment: as above; details: 10 days, 0 = no effect, 100 = complete control
# In short: as §1
# [3] = tested on: corn (Zea mays); experiment: as above; details: 10 days, 0 = no effect, 100 = complete control
# In short: as §1
# [4] = tested on: green foxtail (Setaria viridis); experiment: as above; details: 10 days, 0 = no effect, 100 = complete control
# In short: as §1
# [5] = tested on: kochia (Bassia scoparia); experiment: as above; details: 10 days, 0 = no effect, 100 = complete control
# In short: as §1
# [6] = tested on: oat, wild (wild oat, Avena fatua); experiment: as above; details: 10 days, 0 = no effect, 100 = complete control
# In short: as §1
# [7] = tested on: palmer (palmer amaranth, palmer pigweed, Amaranthus palmeri); experiment: as above; details: 10 days, 0 = no effect, 100 = complete control
# In short: as §1
# [8] = tested on: ragweed (common ragweed, Ambrosia artemisiifolia); experiment: as above; details: 10 days, 0 = no effect, 100 = complete control
# In short: as §1
# [9] = tested on: ryegrass, Italian (italian ryegrass, Lolium multiflorum); experiment: as above; details: 10 days, 0 = no effect, 100 = complete control
# In short: as §1
# [10] = tested on: soybean (Glycine max); experiment: as above; details: 10 days, 0 = no effect, 100 = complete control
# In short: as §1
# [11] = tested on: wheat (Triticum aestivum); experiment: as above; details: 10 days, 0 = no effect, 100 = complete control
# In short: as §1
# [12] = tested on: barnyardgrass (Echinochloa crus-galli); experiment: Test A postemergence application, visual injury rating 0-100; details: 10 days
# In short: as §1
# [13] = tested on: blackgrass (Alopecurus myosuroides); experiment: as above; details: 10 days
# In short: as §1
# [14] = tested on: corn (Zea mays); experiment: as above; details: 10 days
# In short: as §1
# [15] = tested on: galium (catchweed bedstraw, Galium aparine); experiment: as above; details: 10 days
# In short: as §1
# [16] = tested on: green foxtail (Setaria viridis); experiment: as above; details: 10 days
# In short: as §1
# [17] = tested on: horseweed (Erigeron canadensis); experiment: as above; details: 10 days
# In short: as §1
# [18] = tested on: kochia (Bassia scoparia); experiment: as above; details: 10 days
# In short: as §1
# [19] = tested on: oat, wild (wild oat, Avena fatua); experiment: as above; details: 10 days
# In short: as §1
# [20] = tested on: palmer (palmer amaranth, palmer pigweed, Amaranthus palmeri); experiment: as above; details: 10 days
# In short: as §1
# [21] = tested on: ragweed (common ragweed, Ambrosia artemisiifolia); experiment: as above; details: 10 days
# In short: as §1
# [22] = tested on: ryegrass, Italian (italian ryegrass, Lolium multiflorum); experiment: as above; details: 10 days
# In short: as §1
# [23] = tested on: soybean (Glycine max); experiment: as above; details: 10 days
# In short: as §1
# [24] = tested on: wheat (Triticum aestivum); experiment: as above; details: 10 days
# In short: as §1
# [25] = tested on: barnyardgrass (Echinochloa crusgalli); experiment: Test B flooded paddy test, visual plant response rating 0-100; details: 250 g ai/ha, Flood, applied to paddy water, evaluated after 13 days
# In short: (§2)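 In this flooded assay, 2-leaf seedlings received compound through the water layer, kept at 3 cm over the soil. Plants were held 13 days in a greenhouse and then visually compared with control pots.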
# [26] = tested on: ducksalad (Heteranthera limosa); experiment: as above; details: 250 g ai/ha, Flood, applied to paddy water, evaluated after 13 days
# In short: as §2
# [27] = tested on: rice (Oryza sativa); experiment: as above; details: 250 g ai/ha, Flood, applied to paddy water, evaluated after 13 days
# In short: as §2
# [28] = tested on: sedge, umbrella (small-flower umbrella sedge, Cyperus difformis); experiment: as above; details: 250 g ai/ha, Flood, applied to paddy water, evaluated after 13 days
# In short: as §2
# [29] = 31 g ai/ha, postemergence, 0 = no effect, 100 = complete control
# [30] = Postemergence, 125 g ai/ha, 0 is no effect, 100 is complete control
compound,measurement,setting,value
CC(C)COC(=O)C1=CCC(NC(=O)C2(C)CN(c3cc(F)cc(F)c3)C(=O)O2)C1 (stereo not shown) [Compound 16],Barnyardgrass plant response rating (0-100),[1]; 31 g ai/ha,0
same,Barnyardgrass plant response rating (0 to 100 scale),[1]; 125 g ai/ha,90
same,Blackgrass plant response rating (0-100),[2]; 31 g ai/ha,0
same,Blackgrass plant response rating (0 to 100 scale),[2]; 125 g ai/ha,40
same,Corn plant response rating (0-100),[3]; 31 g ai/ha,20
same,Corn plant response rating (0 to 100 scale),[3]; 125 g ai/ha,70
same,"Foxtail, Green plant response rating (0-100)",[4]; 31 g ai/ha,0
same,"Foxtail, Green plant response rating (0 to 100 scale)",[4]; 125 g ai/ha,100
same,Kochia plant response rating (0-100),[5]; 31 g ai/ha,0
same,Kochia plant response rating (0 to 100 scale),[5]; 125 g ai/ha,40
same,"Oat, Wild plant response rating (0-100)",[6]; 31 g ai/ha,0
same,"Oat, Wild plant response rating (0 to 100 scale)",[6]; 125 g ai/ha,50
same,"Amaranth, Palmer plant response rating (0-100)",[7]; 31 g ai/ha,0
same,"Amaranth, Palmer plant response rating (0 to 100 scale)",[7]; 125 g ai/ha,80
same,Ragweed plant response rating (0-100),[8]; 31 g ai/ha,0
same,Ragweed plant response rating (0 to 100 scale),[8]; 125 g ai/ha,20
same,"Ryegrass, Italian plant response rating (0-100)",[9]; 31 g ai/ha,40
same,"Ryegrass, Italian plant response rating (0 to 100 scale)",[9]; 125 g ai/ha,90
same,Soybean plant response rating (0-100),[10]; 31 g ai/ha,0
same,Soybean plant response rating (0 to 100 scale),[10]; 125 g ai/ha,0
same,Wheat plant response rating (0-100),[11]; 31 g ai/ha,50
same,Wheat plant response rating (0 to 100 scale),[11]; 125 g ai/ha,80
same,Barnyardgrass plant response rating (0-100),[12]; [29],100
same,Barnyardgrass plant response rating (0 to 100 scale),[12]; [30],100
same,Blackgrass plant response rating (0-100),[13]; [29],90
same,Blackgrass plant response rating (0 to 100 scale),[13]; [30],100
same,Corn plant response rating (0-100),[14]; [29],90
same,Corn plant response rating (0 to 100 scale),[14]; [30],100
same,Galium plant response rating (0-100),[15]; [29],90
same,Galium plant response rating (0 to 100 scale),[15]; [30],90
same,"Foxtail, Green plant response rating (0-100)",[16]; [29],90
same,"Foxtail, Green plant response rating (0 to 100 scale)",[16]; [30],90
same,Horseweed plant response rating (0-100),[17]; [29],0
same,Horseweed plant response rating (0 to 100 scale),[17]; [30],20
same,Kochia plant response rating (0-100),[18]; [29],70
same,Kochia plant response rating (0 to 100 scale),[18]; [30],70
same,"Oat, Wild plant response rating (0-100)",[19]; [29],60
same,"Oat, Wild plant response rating (0 to 100 scale)",[19]; [30],90
same,"Amaranth, Palmer plant response rating (0-100)",[20]; [29],20
same,"Amaranth, Palmer / Pigweed, Palmer plant response rating (0 to 100 scale)",[20]; [30],70
same,Ragweed plant response rating (0-100),[21]; [29],40
same,Ragweed plant response rating (0 to 100 scale),[21]; [30],50
same,"Ryegrass, Italian plant response rating (0-100)",[22]; [29],70
same,"Ryegrass, Italian plant response rating (0 to 100 scale)",[22]; [30],90
same,Soybean plant response rating (0-100),[23]; [29],60
same,Soybean plant response rating (0 to 100 scale),[23]; [30],60
same,Wheat plant response rating (0-100),[24]; [29],80
same,Wheat plant response rating (0 to 100 scale),[24]; [30],90
same,"Plant response rating, Barnyardgrass (0 to 100 scale, 0 is no effect and 100 is complete control)",[25],65
same,"Plant response rating, Ducksalad (0 to 100 scale, 0 is no effect and 100 is complete control)",[26],70
same,"Plant response rating, Rice (0 to 100 scale, 0 is no effect and 100 is complete control)",[27],65
same,"Plant response rating, Sedge, Umbrella (0 to 100 scale, 0 is no effect and 100 is complete control)",[28],65
